# Test system: regenerated Aloe vera shoots
# Assay: in vitro rooting of regenerated Aloe vera shoots
# Format: cell-based, Aloe vera (Aloe barbadensis)
# Conditions: MS supplemented with IAA (0.5, 1.0 or 2.0 mg/L); hormone-free media gave 100% rooting in 3 weeks
# Protocol: Regenerated shoots were rooted in both media containing indole acetic acid (0.5, 1.0, or 2.0 mg/L LAA) and MS media lacking any hormones. Shoots were more successfully rooted in the MS media lacking hormones. The culture conditions were the same as those used for initiation.
substance,measurement,value
indole acetic acid [IAA],rooting of shoots,no rooting was observed

# Reference: patent US7892831B2, “Method for in vitro mass culture of Aloe vera” (priority 2006, dated 2011)
